# Source: BindingDB's records for PubMed 38171251 (Indian Institute of Technology (Banaras Hindu University))
# Assay: Inhibition of Acetyl-CoA acetyltransferase (unknown origin)
row,IC50,SMILES
1,25 nM,Cc1ccccc1CNC1=Nc2ccccc2NC12CCNCC2
2,22 nM,Clc1ccccc1CNC1=Nc2ccccc2NC12CCNCC2
3,22 nM,Clc1cccc(CNC2=Nc3ccccc3NC23CCNCC3)c1
4,269 nM,Cc1ccc(CNC2=Nc3ccccc3NC23CCCCC3)cc1
5,171 nM,CC1CCC2(CC1)Nc1ccccc1N=C2NCc1ccccc1Cl (stereo unspecified)
6,> 1000 nM,CC1CCC2(CC1)NC=CN=C2NCc1ccccc1Cl (stereo unspecified)
